Assay results from ChEMBL document CHEMBL4483862, “Open-source discovery of chemical leads for next-generation chemoprotective antimalarials” (2018).

Tested on: Plasmodium berghei
Test: Luciferase/luciferin-expressing antifolate-resistant parasites were used to infect a culture of HepG2 cells that were pre-incubated with compounds. Infected hepatocytes emit light due to the luciferase reaction. Assay results are presented as the percent inhibition of light emission compared to control. […]
Format: functional
Conditions: sporozoite; for IC90: read-out: LUCIFERASE INFECTION ASSAY - IC90

Row | Structure (SMILES) | IC90 [µM] | further results
1 | Oc1ccc(/C=C/c2ccc3cccc(O)c3n2)cc1Br | 7.7 | IC50 (PBLUC_HILL_SLOPE 43.7, PBLUC_R_SQUARED 0.404, read-out: LUCIFERASE INFECTION ASSAY - IC50): 7.32 µM
2 | COc1cc(CNC2CCCC2)c(Br)cc1OC1CCCC1 | > 8.15 | IC50 (PBLUC_HILL_SLOPE 45, PBLUC_R_SQUARED 0.216, read-out: LUCIFERASE INFECTION ASSAY - IC50): 8.1 µM
3 | NC(Cc1ccc(C(F)(F)F)cc1)c1csc(NC(=O)Nc2ccccc2Cc2ccccc2)n1 (stereo not given) | 6.33 | IC50 (PBLUC_HILL_SLOPE 25.9, PBLUC_R_SQUARED 0.261, read-out: LUCIFERASE INFECTION ASSAY - IC50): 5.82 µM
4 | Nc1ncc(-c2ccc(-c3ccccc3)cc2F)cc1-c1ccccc1F | > 9.21 | IC50 (PBLUC_HILL_SLOPE 34.9, PBLUC_R_SQUARED 0.254, read-out: LUCIFERASE INFECTION ASSAY - IC50): 8.92 µM
5 | COc1ccc(-c2cc(-c3ccc(O)cc3)cnc2N)cn1 | 10.6 | IC50 (PBLUC_HILL_SLOPE 26.5, PBLUC_R_SQUARED 0.457, read-out: LUCIFERASE INFECTION ASSAY - IC50): 9.73 µM
6 | Nc1cc(C(F)(F)F)ccc1Sc1ccccn1 | > 12.2 | IC50 (PBLUC_HILL_SLOPE 27.6, PBLUC_R_SQUARED 0.179, read-out: LUCIFERASE INFECTION ASSAY - IC50): 11.8 µM
7 | Cc1c(NC(=O)c2c(F)cccc2F)cc2c(c1[N+](=O)[O-])C(C)(C)CC2(C)C | > 8.5 | IC50 (PBLUC_HILL_SLOPE 39, PBLUC_R_SQUARED 0.724, read-out: LUCIFERASE INFECTION ASSAY - IC50): > 8.5 µM
8 | O=S(=O)(c1ccc(Cl)cc1)c1nc(/C=C/c2ccccc2)oc1NCc1ccco1 | 9.82 | IC50 (PBLUC_HILL_SLOPE 32.9, PBLUC_R_SQUARED 0.0875, read-out: LUCIFERASE INFECTION ASSAY - IC50): 9.18 µM
9 | O=C(CO/N=C/c1ccc(OCc2ccccc2)c(OCc2ccccc2)c1)N1CCCCCC1 | > 10 | IC50 (PBLUC_HILL_SLOPE 29.4, PBLUC_R_SQUARED 0.303, read-out: LUCIFERASE INFECTION ASSAY - IC50): 9.83 µM
10 | Cn1c(SCc2nc3ccc(Cl)cc3n2CCO)nc2scc(-c3ccc(F)cc3)c2c1=O | 3.59 | IC50 (PBLUC_HILL_SLOPE 30.6, PBLUC_R_SQUARED 0.504, read-out: LUCIFERASE INFECTION ASSAY - IC50): 3.34 µM
11 | Cc1ccc(-c2nc(CN3C(=O)NC4(CCCCCC4)C3=O)cs2)cc1 | > 10 | IC50 (PBLUC_HILL_SLOPE 31.5, PBLUC_R_SQUARED 0.344, read-out: LUCIFERASE INFECTION ASSAY - IC50): 9.91 µM
12 | CCCCN1C(=O)C(=O)N(CC(=O)Nc2sc(Cc3ccc4c(c3)OCO4)c(C)c2C(=O)OCC)C1=O | 0.0425 | IC50 (PBLUC_HILL_SLOPE 37.8, PBLUC_R_SQUARED 0.839, read-out: LUCIFERASE INFECTION ASSAY - IC50): 0.0401 µM
13 | CC(C)NC(=O)c1c(NC(=O)c2cccc(Cl)c2Cl)nc2ccccn12 | > 8.43 | IC50 (PBLUC_HILL_SLOPE 29.4, PBLUC_R_SQUARED 0.349, read-out: LUCIFERASE INFECTION ASSAY - IC50): 7.83 µM
14 | CCCn1c(NC(=O)C2CCCN2C(=O)C23CC4CC(CC(C4)C2)C3)nc2ccccc21 (stereo not given) | 9.69 | IC50 (PBLUC_HILL_SLOPE 41.1, PBLUC_R_SQUARED 0.0887, read-out: LUCIFERASE INFECTION ASSAY - IC50): 9.19 µM
15 | COc1cccc(-c2cc3c(Nc4ccccc4)nccc3[nH]2)c1 | 3.51 | IC50 (PBLUC_HILL_SLOPE 41.1, PBLUC_R_SQUARED 0.519, read-out: LUCIFERASE INFECTION ASSAY - IC50): 3.33 µM
16 | COc1ccccc1C(=O)Nc1ccc2c(c1)nc(CCN1CCCC1)n2C | > 8.72 | IC50 (PBLUC_HILL_SLOPE 41.2, PBLUC_R_SQUARED 0.16, read-out: LUCIFERASE INFECTION ASSAY - IC50): 8.38 µM
17 | CC(=O)Nc1cccc2c1CCN(c1ncnc3sccc13)C2 | 3.46 | IC50 (PBLUC_HILL_SLOPE 34.6, PBLUC_R_SQUARED 0.49, read-out: LUCIFERASE INFECTION ASSAY - IC50): 3.25 µM
18 | OC[C@H]1O[C@@H](c2nc3cc(-c4nc(-c5ccccc5F)no4)ccc3[nH]2)C[C@@H]1O | 2.9 | IC50 (PBLUC_HILL_SLOPE 37.1, PBLUC_R_SQUARED 0.287, read-out: LUCIFERASE INFECTION ASSAY - IC50): 2.73 µM
19 | Cc1nc(CSCC(=O)Nc2nc(-c3ccccn3)cs2)cs1 | > 10 | IC50 (PBLUC_HILL_SLOPE 39.1, PBLUC_R_SQUARED 0.364, read-out: LUCIFERASE INFECTION ASSAY - IC50): 9.84 µM
20 | Cc1cc(C(=O)ONC(=N)c2c(-c3c(Cl)cccc3Cl)noc2C)no1 | > 8.35 | IC50 (PBLUC_HILL_SLOPE 25.8, PBLUC_R_SQUARED 0.198, read-out: LUCIFERASE INFECTION ASSAY - IC50): 8.05 µM

Row | Structure (SMILES) | IC90 [µM] | further results
21 | CCc1c(C)[nH]c2cc(-c3ccc(OC)cc3)nn2c1=O | 3.98 | IC50 (PBLUC_HILL_SLOPE 29.9, PBLUC_R_SQUARED 0.167, read-out: LUCIFERASE INFECTION ASSAY - IC50): 3.7 µM
22 | CN(C)S(=O)(=O)c1ccc(CNc2ccnc3cc(Cl)ccc23)s1 | 3.6 | IC50 (PBLUC_HILL_SLOPE 38.6, PBLUC_R_SQUARED 0.0785, read-out: LUCIFERASE INFECTION ASSAY - IC50): 3.4 µM
23 | CC(C)(C)NC(=S)Nc1cc(C(F)(F)F)cc(C(F)(F)F)c1 | > 9.58 | IC50 (PBLUC_HILL_SLOPE 27.4, PBLUC_R_SQUARED 0.229, read-out: LUCIFERASE INFECTION ASSAY - IC50): 9.58 µM
24 | Cc1nc(C(=O)N2CCc3c(c(C(=O)NCc4ccccn4)nn3CCc3ccccc3)C2)cs1 | 2.47 | IC50 (PBLUC_HILL_SLOPE 26.7, PBLUC_R_SQUARED 0.676, read-out: LUCIFERASE INFECTION ASSAY - IC50): 2.27 µM
25 | Cc1cc(-c2cc(C(=O)N3CCCN(C)c4nc5ccccc5nc43)c3c(C)noc3n2)c(C)s1 | 0.385 | IC50 (PBLUC_HILL_SLOPE 42.2, PBLUC_R_SQUARED 0.606, read-out: LUCIFERASE INFECTION ASSAY - IC50): 0.366 µM
26 | Cc1nn(C)c(NC(=O)c2ccc(Cl)cc2)c1Br | > 10 | IC50 (PBLUC_HILL_SLOPE 41, PBLUC_R_SQUARED 0.305, read-out: LUCIFERASE INFECTION ASSAY - IC50): > 10 µM
27 | Cc1cc(C)c(NC(=NC2CCCCC2)Nc2c(C)cc(C)cc2C)c(C)c1 | 9.33 | IC50 (PBLUC_HILL_SLOPE 26.1, PBLUC_R_SQUARED 0.486, read-out: LUCIFERASE INFECTION ASSAY - IC50): 8.58 µM
28 | NC(CCc1ccccc1)c1csc(NC(=O)Nc2ccccc2)n1 (stereo not given) | > 9.36 | IC50 (PBLUC_HILL_SLOPE 42.7, PBLUC_R_SQUARED 0.194, read-out: LUCIFERASE INFECTION ASSAY - IC50): 9.14 µM
29 | Cc1ccn2cc(C(=O)Nc3nc(C(C)C)cs3)nc2c1 | > 10 | IC50 (PBLUC_HILL_SLOPE 42, PBLUC_R_SQUARED 0.63, read-out: LUCIFERASE INFECTION ASSAY - IC50): 9.53 µM
30 | CCCNC(=O)c1c(NC(=O)c2ccc(OCC)cc2)nc2ccccn12 | 8.98 | IC50 (PBLUC_HILL_SLOPE 45.3, PBLUC_R_SQUARED 0.241, read-out: LUCIFERASE INFECTION ASSAY - IC50): 8.55 µM
31 | Cc1cc(NC(=O)CNC(c2ccc(C3CCCCC3)cc2)C(C)C)n(C2CCS(=O)(=O)C2)n1 (stereo not given) | 9.9 | IC50 (PBLUC_HILL_SLOPE 35.5, PBLUC_R_SQUARED 0.454, read-out: LUCIFERASE INFECTION ASSAY - IC50): 9.31 µM
32 | COCCn1c(C(=O)OC)c(NC(=O)c2ccco2)c2cc(NCC(C)c3ccccc3)cnc21 (stereo not given) | > 6.93 | IC50 (PBLUC_HILL_SLOPE 27.9, PBLUC_R_SQUARED 0.298, read-out: LUCIFERASE INFECTION ASSAY - IC50): 6.65 µM
33 | COc1ccc(-c2cnc3cnc(-c4ccc(N)nc4)cn23)cn1 | 9.27 | IC50 (PBLUC_HILL_SLOPE 29.9, PBLUC_R_SQUARED 0.596, read-out: LUCIFERASE INFECTION ASSAY - IC50): 8.62 µM
34 | CC(C)N(c1ccccc1)c1ccc(NC(=O)Nc2ccccc2)cc1 | 3.58 | IC50 (PBLUC_HILL_SLOPE 27.4, PBLUC_R_SQUARED 0.0577, read-out: LUCIFERASE INFECTION ASSAY - IC50): 3.31 µM
35 | Cc1cccc(C(=O)OC(C)C(=O)Nc2sccc2C#N)c1N (stereo not given) | > 10 | IC50 (PBLUC_HILL_SLOPE 38.2, PBLUC_R_SQUARED 0.283, read-out: LUCIFERASE INFECTION ASSAY - IC50): 9.97 µM
36 | CN1N=C2c3ccccc3CCCC2C1c1ccc(C(C)(C)C)cc1 (stereo not given) | 3.51 | IC50 (PBLUC_HILL_SLOPE 38, PBLUC_R_SQUARED 0.372, read-out: LUCIFERASE INFECTION ASSAY - IC50): 3.31 µM
37 | O=C(C1CCCN(c2cnccn2)C1)N1CCN(C(c2ccc(F)cc2)c2ccc(F)cc2)CC1 (stereo not given) | > 10 | IC50 (PBLUC_HILL_SLOPE 27.2, PBLUC_R_SQUARED 0.0353, read-out: LUCIFERASE INFECTION ASSAY - IC50): 9.76 µM
38 | O=C(Nc1ccc(S(=O)(=O)NCCCN2CCOCC2)cc1)c1csc(-c2ccsc2)n1 | > 10 | IC50 (PBLUC_HILL_SLOPE 27, PBLUC_R_SQUARED 0.0565, read-out: LUCIFERASE INFECTION ASSAY - IC50): 9.66 µM
39 | c1ccc(-c2cc(-c3ccc(NC4=NCCCS4)cc3)nc3ccccc23)cc1 | 9.46 | IC50 (PBLUC_HILL_SLOPE 28.5, PBLUC_R_SQUARED 0.262, read-out: LUCIFERASE INFECTION ASSAY - IC50): 8.76 µM
40 | CN(C)C(=O)c1ccc(NCC(=O)N2N=C(c3ccc(Cl)cc3)CC2c2ccco2)cc1 (stereo not given) | 8.21 | IC50 (PBLUC_HILL_SLOPE 25.7, PBLUC_R_SQUARED 0.49, read-out: LUCIFERASE INFECTION ASSAY - IC50): 7.54 µM
